Assay results published in patent US20240374558A1, “PREPARATION OF PHENE[…] […] STEREOISOMERS THEREOF AND PRECURSORS THEREOF” (priority 2022, published 2024).
Counter-ions that a name gives are not always drawn.

Tests used:
Assay type in all cases: cell-based
[1] = target: T1, Kc4.3/ChIP2 (Homo sapiens, UniProt Q9UK17); test: hKv4.3/hKChIP2 Potassium Channel Assay, Qube APC; settings: Antagonist mode; HEK-Kv4.3/KChIP2; test compound
T1 construct: host or cells: HEK
T1 sequence (Q9UK17 1-655): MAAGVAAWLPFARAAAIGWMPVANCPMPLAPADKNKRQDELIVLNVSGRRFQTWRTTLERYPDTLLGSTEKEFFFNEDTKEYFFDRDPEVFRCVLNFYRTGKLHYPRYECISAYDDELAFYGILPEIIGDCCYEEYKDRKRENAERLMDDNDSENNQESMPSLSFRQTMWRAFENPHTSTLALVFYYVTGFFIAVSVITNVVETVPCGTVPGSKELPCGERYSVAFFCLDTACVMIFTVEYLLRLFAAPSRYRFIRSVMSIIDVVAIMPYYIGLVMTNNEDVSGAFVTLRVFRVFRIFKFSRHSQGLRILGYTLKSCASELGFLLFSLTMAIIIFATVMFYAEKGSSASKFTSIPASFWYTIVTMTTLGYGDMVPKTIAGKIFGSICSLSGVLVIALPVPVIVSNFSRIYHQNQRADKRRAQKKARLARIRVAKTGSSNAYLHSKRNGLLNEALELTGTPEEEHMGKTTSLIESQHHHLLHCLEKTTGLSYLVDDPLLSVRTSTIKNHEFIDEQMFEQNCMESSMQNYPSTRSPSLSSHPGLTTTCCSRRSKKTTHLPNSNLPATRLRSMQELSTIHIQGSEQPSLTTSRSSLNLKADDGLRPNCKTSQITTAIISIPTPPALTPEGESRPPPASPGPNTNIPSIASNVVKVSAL
T1 sequence (Q9NS61 1-270 partner): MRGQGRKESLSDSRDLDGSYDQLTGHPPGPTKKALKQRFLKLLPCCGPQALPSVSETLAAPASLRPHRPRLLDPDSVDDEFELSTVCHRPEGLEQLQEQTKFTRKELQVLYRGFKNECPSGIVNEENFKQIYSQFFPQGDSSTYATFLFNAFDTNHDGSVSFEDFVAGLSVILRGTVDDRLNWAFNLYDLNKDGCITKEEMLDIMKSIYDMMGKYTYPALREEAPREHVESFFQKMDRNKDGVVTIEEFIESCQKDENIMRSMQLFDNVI
Experimental: (§1) Electrophysiological assays were conducted to profile three compounds ((R)-methylone, (S)-methylone, or racemic methylone) for activities on the ion channel targets specified below using the Qube electrophysiological platform. Where presented, IC50 values were determined by a non-linear, least squares regression analysis. Reference standards were run as an integral part of each assay to ensure the validity of the results obtained.
(§2) Ion Channels tested were Eurofins Panel Part Number: CPROFullQB2DR Voltage-Gated Sodium: HEK-Nav1.5 (Peak), HEK-Nav1.5 (Late, Antagonist) Voltage-Gated Potassium: HEK-Kv4.3/KChIP2, CHO-hERG, CHO-KCNQ1/minK Voltage-Gated Calcium: HEK-Cav1.2 Inward-Rectifying Voltage-Gated Potassium: HEK-Kir2.1.
Methods employed in this study have been developed and validated with reliability and reproducibility by Eurofins. Assays were performed under conditions below. [0217] hNavL.5 Sodium Channel Assay—Qube APC Onset and steady state block of peak Nay1.5 current is measured using a pulse pattern, repeated every 5 sec, consisting of a hyperpolarizing pulse to −120 mV for a 200 ms duration, depolarization to −15 mV amplitude for a 40 ms duration, followed by step to 40 mV for 200 ms and finally a 100 ms ramp (1.2 V/s) to a holding potential of −80 mV. Peak current is measured during the step to −15 mV. […] Onset and steady state block of hKv4.3 current is measured using a pulse pattern from −80 mV to 40 mV amplitude for a 110 ms duration, and finally a 100 ms ramp (1.2 V/s) to −80 mV. […] [0220] hNav1.5 Late Current Sodium Channel Assay—Qube APC Onset and steady state block of Late Nay1.5 current is measured using a pulse pattern, repeated every 5 sec, consisting of a hyperpolarizing pulse to −120 mV for a 200 ms duration, depolarization to −15 mV amplitude for a 40 ms duration, followed by step to 40 mV for 200 ms and finally a 100 ms ramp (1.2 V/s) to a holding potential of −80 mV. Late current is measured as charge current elicited during the ramp with 50 nM ATXII.

[2] = target: T2, KCNQ1/mink (Homo sapiens, UniProt P51787); test: hKCNQ1/hminK Potassium Channel Assay, Qube APC; settings: Antagonist mode; CHO-KCNQ1/minK; test compound
T2 construct: host or cells: CHO
T2 sequence (P51787 whole entry): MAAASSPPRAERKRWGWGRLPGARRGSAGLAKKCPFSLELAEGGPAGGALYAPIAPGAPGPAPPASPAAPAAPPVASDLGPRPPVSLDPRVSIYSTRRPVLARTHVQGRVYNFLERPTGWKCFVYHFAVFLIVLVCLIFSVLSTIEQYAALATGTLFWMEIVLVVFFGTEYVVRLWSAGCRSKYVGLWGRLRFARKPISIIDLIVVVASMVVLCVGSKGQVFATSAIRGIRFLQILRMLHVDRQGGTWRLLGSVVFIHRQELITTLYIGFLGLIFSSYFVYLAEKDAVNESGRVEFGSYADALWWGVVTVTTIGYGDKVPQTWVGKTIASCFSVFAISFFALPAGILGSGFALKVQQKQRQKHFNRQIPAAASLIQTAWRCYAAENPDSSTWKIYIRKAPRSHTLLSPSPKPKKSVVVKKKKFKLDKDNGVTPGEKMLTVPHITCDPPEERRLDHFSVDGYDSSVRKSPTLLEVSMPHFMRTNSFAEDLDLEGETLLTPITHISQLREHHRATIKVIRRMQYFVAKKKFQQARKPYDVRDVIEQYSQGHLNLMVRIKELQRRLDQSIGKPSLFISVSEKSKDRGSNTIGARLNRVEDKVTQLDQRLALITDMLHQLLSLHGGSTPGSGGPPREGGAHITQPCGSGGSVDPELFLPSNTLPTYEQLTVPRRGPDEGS
Experimental: as §1, §2
(§3) hKCNQ1/hminK Potassium Channel Assay—Qube APC After whole cell configuration is achieved, the cells are held at −80 mV. KCNQ1/minK currents are evoked by a 1000 ms pulse from −80 mV to 60 mV followed by a ramp from 60 mV to −80 mV over 115 ms with the outward peak currents measured upon depolarization of the cell membrane. This paradigm is delivered once every 15s to monitor the current amplitude. [0223] hKir2.1 Potassium Channel Assay—Qube APC After whole cell configuration is achieved, the cells are held at −30 mV. Kir2.1 currents are evoked by a single 500 ms pulse to -120 mV before returning to the holding potential of −30 mV. This paradigm is delivered once every 20s to monitor the current amplitude.

[3] = target: T3, Kir2.1 (Homo sapiens, UniProt P63252); settings: Antagonist mode; HEK-Kir2.1; test compound
T3 construct: host or cells: HEK
T3 sequence (P63252 1-427): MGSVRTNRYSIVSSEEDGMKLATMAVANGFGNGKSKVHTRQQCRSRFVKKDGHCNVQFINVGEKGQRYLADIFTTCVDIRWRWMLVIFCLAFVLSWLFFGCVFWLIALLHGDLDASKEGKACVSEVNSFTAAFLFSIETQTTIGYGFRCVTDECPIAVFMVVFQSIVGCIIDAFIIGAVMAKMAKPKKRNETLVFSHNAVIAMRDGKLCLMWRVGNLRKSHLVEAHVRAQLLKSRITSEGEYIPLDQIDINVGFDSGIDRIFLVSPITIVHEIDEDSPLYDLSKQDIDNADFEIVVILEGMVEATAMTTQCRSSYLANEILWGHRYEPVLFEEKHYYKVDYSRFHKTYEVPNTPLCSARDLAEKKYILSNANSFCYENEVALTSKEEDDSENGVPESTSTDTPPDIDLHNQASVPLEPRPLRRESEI
Experimental: as §1, §2, §3

Row | SMILES | Estimated IC50 [1] | Estimated IC50 [2] | Estimated IC50 [3]
1 | CN[C@@H](C)C(=O)c1ccc2c(c1)OCO2 [(S)-methylone] | N/C (N/C indicates observed mean inhibition was <25%) | N/C (N/C indicates observed mean inhibition was <25%) | N/C (N/C indicates observed mean inhibition was <25%)
2 | CNC(C)C(=O)c1ccc2c(c1)OCO2 (stereo not drawn) [Methylone HCl, methylone HCl] | N/C (N/C indicates observed mean inhibition was <25%) | N/C (N/C indicates observed mean inhibition was <25%) | N/C (N/C indicates observed mean inhibition was <25%)
3 | CN[C@H](C)C(=O)c1ccc2c(c1)OCO2 [(R)-methylone] | N/C (N/C indicates observed mean inhibition was <25%) | N/C (N/C indicates observed mean inhibition was <25%) | N/C (N/C indicates observed mean inhibition was <25%)
